Measured values: patent publication US6338946B1, “Method for assaying immunosuppressant” (Fujisawa Pharmaceutical Co., Ltd., priority 1994, dated 2002)

What was measured:
FKBP-12 = FKBP-12 (Homo sapiens, UniProt P62942); experiment: FKBP-12 binding activity measurement using 3H-dihydro-FK506; settings: for FKBP-12 binding activity (relative %): relative to FK506 = 100
Description: (1) The FKBP-12 binding activity measurement was carried out in the same manner as described in Clinical Chemistry, 38/7, 1307-1310 (1992), using ^3H-dihydro-FK506, FKBP-12, dextran charcoaled, etc.

[1] = target: T1, complex of FKBP-12, bovine calcineurin, bovine calmodulin and calcium ion (UniProt P48452+P62942+P63099); experiment: Complex formation assay with solid-phase FKBP-12, detected by anti-calcineurin enzyme immunoassay (fluorometry); type: binding, human FKBP-12; bovine calcineurin and calmodulin; settings: for Concentration dependence of fluorescence intensity (in words): Table 1 concentration series; for Complex forming activity (relative %): relative to FK506 = 100, calculated from Table 1 data
T1 construct: made in house; host or cells: E. coli HB101 (vector pFKBP333, tryptophan promoter)
Description: The plate was then washed 3 times with the same phosphate buffer solution as used in Preparation 1. FKBP-12 was thus bound to each well. An assay buffer (300 μl) having the composition shown below was added to each well and, after 15 minutes, it was removed, to block residual protein binding sites in each well. […] A solution (5 mg/ml) of a crude product, prepared by the conventional method, in 20 mM Tris-hydrochloride (pH 7.0) was 40-fold diluted with the above-mentioned assay buffer. Commercial bovine calmodulin was appropriately diluted with the above-mentioned assay buffer (to give a final concentration of 95 nM in the well). A methanol solution (1 mg/ml) of FK506 was appropriately diluted with the above-mentioned assay buffer. (3) Each well was washed (4 times) with the same buffer as the above-mentioned assay buffer except that it was free of bovine serum albumin and, then, an appropriate dilution (100 μl), in the assay buffer, of a rabbit polyclonal antibody recognizing the calcineurin Aα chain as obtained by the known method described, for example, in J. Neurochem., 58, 1643-1651 (1992) was added to each well, and the reaction was allowed to proceed at room temperature for 1 hour. (4) Each well was washed (4 times) with the same buffer as the above-mentioned assay buffer except that it was free of bovine serum albumin and, then, an appropriate dilution (100 μl), in the assay buffer, of alkaline phosphatase-labeled anti-rabbit IgG (Vector Laboratories) was added to each well. (5) Each well was washed (4 times) with the same buffer as the assay buffer except that it was free of bovine serum albumin and, then, 200 μl of a 4-methylumbelliferyl phosphate (hereinafter, 4-MU) substrate solution (1 mM), prepared as described below, was added to each well and, after the lapse of 20 minutes at room temperature, fluorometry (excitation wavelength 360 nm; emission wavelength 460 nm) was carried out using Cytofluor 2350 (trademark, Millipore Co. Ltd, USA). […] Ltd) was prepared with water and further diluted with a buffer solution (10 mM, pH 10.0) comprising diethanolamine (0.7 ml/l) and magnesium chloride hexahydrate (0.1 g/l) to give a 1 mM 4-MU substrate solution. Using the metabolites M-II and M-III shown below, which are already known as metabolites obtainable upon treatment of FK506 with rat liver microsome, as described, for example, in Drug Metabolism and Disposition, 21 (6), 971-977, quantitative analysis was carried out in the same manner as in Example 1.

[2] = system: mixed lymphocyte reaction; experiment: in vitro mixed lymphocyte reaction (MLR) test; type: cell-based; settings: for Immunosuppressive activity (in words): MLR; for Immunosuppressive activity (MLR) (relative %): relative to FK506 = 100
Description: (2) The immunosuppressive activity was measured by the well-known in vitro mixed lymphocyte reaction (MLR) test described, for example, in European Patent Application EP-0184162-A2, page 67.

| FKBP-12 binding activity (relative %) (FKBP-12) | Detection by the complex assay method (in words) [1] | Complex forming activity (relative %) [1] | FKBP-12 binding activity (in words) (FKBP-12) | SMILES | Concentration dependence of fluorescence intensity (in words) [1] | Immunosuppressive activity (in words) [2] | Immunosuppressive activity (MLR) (relative %) [2] |
| --- | --- | --- | --- | --- | --- | --- | --- |
| 100 relative % | can be detected | 100 relative % |  | C=CC[C@@H]1/C=C(\C)C[C@H](C)C[C@H](OC)[C@H]2O[C@@](O)(C(=O)C(=O)N3CCCC[C@H]3C(=O)O[C@H](/C(C)=C/[C@@H]3CC[C@@H](O)[C@H](OC)C3)[C@H](C)[C@@H](O)CC1=O)[C@H](C)C[C@@H]2OC [FK506, 17-Allyl-1,14-dihydroxy-12-[2-(4-hydroxy-3-methoxycyclohexyl)-1-methylvinyl]-23,25-dimethoxy-13,19,21,27-tetramethyl-11,28-dioxa-4-azatricyclo[22.3.1.0^4,9]octacos-18-ene-2,3,10,16-tetraone] | give fluorescence intensities depending on their concentrations | have immunosuppressive activity | 100 relative % |
| 116.0 relative % | is not detected | 0 relative % | has FKBP-12 binding activity | C=CCC1/C=C(\C)CC(C)CC(O)C2OC(O)(C(=O)C(=O)N3CCCCC3C(=O)OC(/C(C)=C/C3CCC(O)C(C)C3)C(C)C(O)CC1=O)C(C)CC2OC (stereo not shown) [M-III] | does not give concentration-dependent values | has no immunosuppressive activity | 0 relative % |
| 14.2 relative % | can be detected | 79.7 relative % |  | C=CCC1/C=C(\C)CC(C)CC(OC)C2OC(O)(C(=O)C(=O)N3CCCCC3C(=O)OC(/C(C)=C/C3CCC(O)C(O)C3)C(C)C(O)CC1=O)C(C)CC2OC (stereo not shown) [M-II] | give fluorescence intensities depending on their concentrations | have immunosuppressive activity | 100 relative % |
